# Measurements reported in patent US20060281791A1, “Methods of increasing proliferation of adult mammalian cardiomyocytes through p38 map kinase inhibition” (CHILDREN'S MEDICAL CENTER CORPORATION, priority 2005, published 2006).
# What was measured:
# Assay type in all cases: in vivo, rat
# [1] = test system: myocardial infarction in adult rats; assay: Vessel density in the scar area after myocardial infarction; settings: rats after MI
# Description: (§1) To determine whether p38 inhibition/FGF1 stimulation can induce cardiomyocyte proliferation in vivo and whether it has a positive effect on cardiac function after cardiac injury we created myocardial infarctions (MI) in adult rats (250 g) by coronary artery ligation. The p38 inhibitor SB203580 HCl or its vehicle, saline, were injected intraperitoneal every three days for the first month of the study. FGF1 or its carrier BSA was injected mixed with self-assembling peptides once into the infarct border zone immediately after coronary artery ligation. We injecting a total of 80 μl of 400 ng/ml FGF1, given at 3 different injection sites, into 400 mg of infarcted myocardium estimated to deliver a FGF 1 concentration to the cardiomyocytes of approximately 50 to 100 ng/ml. Animals were analyzed 24 hours, 2 weeks, and 3 month after surgery. […]
# One possible explanation is the angiogenic effect of FGF1. To determine the effect of our treatments on vascularization we determined the vessel density in the scar area. […]
# Hearts were embedded in tissue-freezing medium (Fisher) without fixation, frozen in 2-methylbutane (cooled in liquid nitrogen), stored at −80° C., and finally sectioned (20 μm; Leica 3050S). […] Immune complexes were detected with ALEXA 488-, or ALEXA 594-conjugated secondary antibodies (1:400; Molecular Probes). […]
# [2] = test system: myocardial infarction in adult rats; assay: Fractional shortening (echocardiography) after myocardial infarction
# Description: The p38 inhibitors were tested for in vivo effect following myocardial infarct. For the evaluation of left ventricular function, transthoracic echocardiogram can be performed on the rats after myocardial infarction 1 day or 14 days right. Rats can be anesthetized with 4-5% isoflurane in an induction chamber. The chest can be shaved, and the rats can be placed in dorsal decubitus position and intubated for continuous ventilation. 1-2% isoflurane can be continuously supplied via a mask. 3 electrodes can be adhered to their paws to record the electrocardiographic tracing simultaneously with the cardiac image identifying the phase of a cardiac cycle.
# Echocardiograms can be performed with a commercially available echocardiography system equipped with 7.5 MHz phased-array transducer (Philips-Hewlett-Packard). The transducer can be positioned on the left anterior side of the chest. Longitudinal images of the heart can be obtained, including the left ventricle, atrium, the mitral valve and the aorta, followed by the cross-sectional images from the plane of the base to the left ventricular apical region. M-mode tracings can be obtained at the level below the tip of the mitral valve leaflets at the level of the papillary muscles. Fractional shorting (FS) can be calculated as a measure of systolic function, according to the M-mode tracing from the cross-sectional view: maximal LV end-diastolic diameter (at the time of maximal cavity dimension), minimal LV end-systolic diameter (at the time of maximum anterior motion of the posterior wall), FS (%)={(LVEDD−LVESD)/LVEDD}×100.
# To determine whether p38 inhibition/FGF1 stimulation can induce cardiomyocyte proliferation in vivo and whether it has a positive effect on cardiac function after cardiac injury we created myocardial infarctions (MI) in adult rats (250 g) by coronary artery ligation. The p38 inhibitor SB203580 HCl or its vehicle, saline, were injected intraperitoneal every three days for the first month of the study. FGF1 or its carrier BSA was injected mixed with self-assembling peptides once into the infarct border zone immediately after coronary artery ligation. We injecting a total of 80 μl of 400 ng/ml FGF1, given at 3 different injection sites, into 400 mg of infarcted myocardium estimated to deliver a FGF 1 concentration to the cardiomyocytes of approximately 50 to 100 ng/ml. Animals were analyzed 24 hours, 2 weeks, and 3 month after surgery. We performed two blinded and randomized studies using 62 rats for the 2 week and 61 rats for the 3 month experiment, with at least 10 animals in each experimental group. Animals were treated with saline plus BSA (control), SB203580 HCl plus BSA (p38i), saline plus FGF1 (FGF1), or SB203580 HCl plus FGF1 (p38i/FGF1).
# Animal experiments were performed in accordance with guidelines of Children's Hospital in Boston and were approved by the Harvard Medical School Standing Committee on Animals. Myocardial infarction (MI) was produced in ˜250 gm male Sprague-Dawley rats (Charles River and Harlan) as described previously (Hsieh et al., 2006). Briefly, rats were anesthetized by pentobarbital and, following tracheal intubation, the hearts were exposed via left thoracotomy. The left coronary artery was identified after pericardiotomy and was ligated by suturing with 6-0 prolene at the location ˜3mm below the left atrial appendix. For the sham operation, suturing was performed without ligation. […]
# [3] = test system: myocardial infarction in adult rats; assay: Thinning index (ventricular wall thinning) after myocardial infarction
# Description: as §1, with “We injecting a total of 80 μl of 400 ng/ml FGF1, given at 3 different injection sites, into 400 mg of infarcted myocardium estimated to deliver a FGF 1 concentration to the cardiomyocytes of approximately 50 to 100 ng/ml.” left out
# Ventricular wall thinning is an important parameter of heart function. Thus, we determined the thickness of the ventricular wall after injury. For this purpose we calculated the thinning index (ratio of minimal ventricular wall thickness to maximal thickness of the septum). […]
# Scar formation was determined as fibrotic area/(fibrotic+non-fibrotic area) based on all sections. The thinning index is a ratio of the amount of wall thinning in the infarct normalized to the thickness of the septum and is calculated by dividing the minimal infarct wall thickness with maximal septal wall thickness (2 weeks: section 1 to 4, 3 month: section 1 to 6 from base).
substance,measurement,setting,value
FGF1: growth factor FGF1 (R&D Systems),vessel density in the scar area,[1],increases significantly
same,improvement of fractional shortening,[2]; 3 month after infarction,maintained
same,left ventricular fractional shortening,[2]; 24 hours after MI,significantly improved
same,improvement of fractional shortening,[2]; day 14 after infarction,maintained
same,left ventricular wall thinning (thinning index),[3]; 2 weeks,significantly reduced
same,ventricular wall thinning,[3]; 3 month,significantly improved
